From patent US8124365B2, “Identification of genotype-selective anti-tumor agents” (Whitehead Institute for Biomedical Research, priority 2003, dated 2012)

Experiments:
Format in all cases: cell-based, human
[1] = system: BJ-TERT/LT/ST/RAS^V12 cells; assay: Calcein AM viability assay, dilution series, BJ-TERT/LT/ST/RAS^V12 tumorigenic cells
Method: Described here is work carried out to identify compounds with increased potency or activity in the presence of hTERT, LT, ST, E6, E7 or RAS^V12. […] The primary screen tested (in quadruplicate) the effect of treating tumorigenic […], corresponding to 10 μM for a compound with a molecular weight of 400, which is the approximate median molecular weight of the libraries. […] In live cells, calcein AM is cleaved by intracellular esterases, forming the anionic fluorescent derivative calcein, which cannot diffuse out of live cells. […] The IC50 value (concentration required to inhibit 50% of the calcein AM signal) was calculated for each compound in each cell line (Table 1).
Calcein acetoxylmethyl ester (AM) is a cell membrane-permeable, non-fluorescent compound that is cleaved by intracellular esterases to form the anionic, cell-impermeable, fluorescent compound calcein. Viable cells are stained by calcein because of the presence of intracellular esterases and because the intact plasma membrane prevents fluorescent calcein from leaking out of cells (Wang et al., 1993, supra). Cells were seeded in 384-well plates using a Zymark Sciclone ALH, treated with each […], washed with phosphate-buffered saline on a Packard Minitrak with a 384-well washer and incubated for four hours with 0.7 μg/mL calcein (Molecular Probes). Total fluorescence intensity in each well was recorded on a Packard Fusion platereader, and converted to a percent inhibition of signal by subtracting the instrument background and dividing by the average signal obtained when cells were not treated with any compound.
Compounds to be retested were purchased from manufacturers. Stocks were prepared in DMSO at a concentration of 1 mg/ml in 384-well polypropylene plates with a 16-point, two-fold dilution dose curve of each compound in a column, in duplicates. Column 1-2 and 23-24 were left empty for controls. Daughter retest plates were prepared from stock retest plate by diluting 66.6 fold in DMEM in 384-well deep-deep well plates (4.5 μl transfer into 300 μl). Cells were seeded at a density of 6000 per well in 40 μl, and 20 μl was added from a daughter retest plate. […]
The IC50 in primary BJ cells was divided by the IC50 in BJ-TERT/LT/ST/RAS^V12 tumorigenic cells to obtain a tumor selectivity ratio for each compound. The compound selectivity for each genetic element was determined by calculating the selectivity ratio for each subsequent pair of cell lines in a series.

[2] = system: BJ-TERT/LT/ST/RAS^V12 cells; assay: Nuclear morphology assay; conditions: fluorescence microscopy, 9 μM erastin or 1.1 μM camptothecin, 18 hours
Method: 200,000 tumorigenic BJ-TERT/LT/ST/RAS^V12 cells were seeded in 2 mL on glass coverslips in each well of a six-well dish, treated with nothing (NT), 9 μM erastin or 1.1 μM camptothecin (CPT) in growth medium for 18 hours while incubating at 37° C. with 5% CO2. Nuclei were stained with 25 μg/mL Hoechst 33342 (Molecular Probes) and viewed using an oil immersion 100× objective on a fluorescence microscope.

[3] = system: caspase 3; assay: Western blot for active, cleaved caspase 3; conditions: lysates of treated BJ-TERT/LT/ST/RAS^V12 cells
Method: BJ-TERT/LT/ST/RAS^V12 cells were seeded prior to the experiment at 5×10^5 cells in 60 mm dishes. The cells were treated with 5 μg/ml erastin (9 μM) for 2, 4, 6, 8 or 10 hours. One dish was maintained for camptothecin treatment (0.4 μg/ml for 24 h) as a positive control. Cells were lysed after each time point in lysis buffer (50 mM HEPES KOH pH 7.4, […], 2 mM EDTA, 0.5% Triton X-100, 1.5 mM Na3VO4, 50 mM NaF, 10 mM sodium pyrophosphate, 10 mM sodium beta-glycerophosphate and protease inhibitor tablet (Roche)). Protein content was quantified using a Biorad protein assay reagent. Equal amounts of protein were resolved on 16% SDS-polyacrylamide gel. The electrophoresed proteins were transblotted onto a PVDF membrane, blocked with 5% milk and incubated with anti-active caspase-3 polyclonal antibody (BD Pharmingen) at 1:1500 dilution overnight at 4° C. The membrane was then incubated in anti-rabbit-HRP (Santa Cruz Biotechnology) at 1:3000 dilution for 1 hour and developed with an enhanced chemiluminescence mixture (NEN life science, Renaissance). To test for equivalent loading in each lane, blots were stripped, blocked, and probed with an anti-eIF-4E antibody (BD Transduction laboratories) at 1:1000 dilution.

[4] = system: BJ-TERT/LT/ST/RAS^V12 cells; assay: DNA fragmentation (DNA ladder formation)
[5] = system: BJ cells; assay: Calcein AM viability assay, dilution series, BJ primary cells; conditions: two days
Source text: Described here is work carried out to identify compounds with increased potency or activity in the presence of hTERT, LT, ST, E6, E7 or RAS^V12. Engineered cell lines with these genetic elements were used to screen 23,550 compounds, including 20,000 compounds from a combinatorial library, 1,990 compounds from the National Cancer Institute diversity collection, and 1,540 biologically active known compounds that were selected and purchased by Applicant and formatted into a screenable collection. […] Cell viability was measured using the dye calcein acetoxymethyl ester (calcein AM) (Wang et al., 1993, Hum. Immunol. 37, 264-270), which is a non-fluorescent compound that freely diffuses into cells. […]
Calcein acetoxylmethyl ester (AM) is a cell membrane-permeable, non-fluorescent compound that is cleaved by intracellular esterases to form the anionic, cell-impermeable, fluorescent compound calcein. […] Total fluorescence intensity in each well was recorded on a Packard Fusion platereader, and converted to a percent inhibition of signal by subtracting the instrument background and dividing by the average signal obtained when cells were not treated with any compound. […]
Mean RFU (relative fluorescence units) for untreated cells was calculated by averaging columns 1, 2, and 23 (wells with cells but lacking compounds). […]

For `CC[C@@]1(O)C(=O)OCc2c1cc1n(c2=O)Cc2cc3ccccc3nc2-1` [Camptothecin, camptothecin], the “time required to cause death” value ([1]; BJ-TERT/LT/ST/RAS^V12 cells) was “two days”, the “nuclear morphology (karyorhexis, margination of chromatin)” value [2] was “karyorhexis and margination of chromatin were clearly visible” and the “activated (cleaved) caspase 3” value [3] was “harbor activated caspase 3”. The “DNA fragmentation (formation of a DNA ladder)” value [4] was “induces DNA fragmentation”.

In the case of `Cc1c2ccccc2c(CSC(=N)N)c2ccccc12.Cl` [NSC146109], the “IC50, concentration required to achieve 50% inhibition of calcein AM staining, BJ” value [5] is reported as >5 µg/mL, the “IC50, 50% inhibition of calcein AM staining, BJ-TERT/LT/ST/Ras^v12” value ([1]; BJ-TERT/LT/ST/Ras^v12 cells, two days) is reported as 2.5 µg/mL and the “Tumor Selectivity” value ([1]; IC50 in primary BJ cells divided by IC50 in BJ-TERT/LT/ST/RAS^V12 tumorigenic cells) is reported as >4.
